Assay results: PMC11062899, “De novo development of small cyclic peptides that are orally bioavailable” (Nature Chemical Biology, 2023)
“And” between values parts separate entries of the source, which are not always exact repeats. Equal entries are not always repeated. Where two headings read alike, the source gives them in different places.

How the values were obtained:
rat α-thrombin = biological target: T1, rat α-thrombin (Rattus norvegicus, UniProt P18292); experiment: Protease inhibition, Ki for rat α-thrombin (fluorogenic substrate Z-Gly-Gly-Arg-AMC); type: biochemical; conditions: for Slope normalized to DMSO (proteolytic substrate cleavage over time) / Rat alpha thrombin inhibition, slope normalized to DMSO: replicates R1-R3
T1 construct: rat α-thrombin (Molecular Innovations) were used at final concentrations of 2 nM and 3 nM; purchased Molecular Innovations
Procedure, shortened: (§1)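 Ki values come from Cheng–Prusoff correction of IC50, itself fitted by four-parameter logistic regression of activity versus a no-peptide control. Assays used 2 nM human or 3 nM rat thrombin, 50 μM Z-Gly-Gly-Arg-AMC, 30 min kinetic fluorescence at 25 °C.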

porcine pepsin = biological target: T2, porcine pepsin (Sus scrofa, UniProt P00791); experiment: Peptide stability in simulated gastric fluid (SGF); type: in vitro ADME
T2 construct: 0.32 g of porcine pepsin (Sigma-Aldrich, P7125) was dissolved under gentle agitation; purchased Sigma-Aldrich P7125
Procedure, shortened: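 Peptide from a 1 mM DMSO stock was added to fluid pre-warmed at 37 °C. SGF was pH 1.2 NaCl with porcine pepsin (0.32 g per 100 ml), and SIF was pH 6.8 potassium phosphate with porcine pancreatin (1 g per 100 ml). Supernatant peptide was quantified by LC–MS, with residual expressed as T1/T0.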

[1] = Metabolic stability in rat liver microsomes (RLMs); conditions: rat, microsomes
[2] = Passive artificial membrane permeability (PAMPA)
Description: The plate system consisted of a 96-well microwell plate (donor wells) and a 96-well insert containing a PVDF membrane coated with tri-layers of phospholipids (acceptor wells). Permeability was measured from the bottom plate (donor wells) to the top insert (acceptor wells). Cyclic peptide or reference compound solutions were prepared at a concentration of 50 μM in PBS buffer (pH 7.4) containing 5% DMSO, and 300 μl of the resulting solutions was placed into the donor wells of the PAMPA plate. Acceptor wells were prepared by adding 200 μl of PBS buffer (pH 7.4) containing 5% DMSO. The insert was stacked onto the donor plate, and the system was covered with a lid to avoid evaporation. […] Additionally, 3:2 dilutions of the 50 μM cyclic peptide stocks were prepared in PBS buffer (pH 7.4) containing 5% DMSO to yield a sample corresponding to the theoretical equilibrium between donor and acceptor wells. The samples were run on the LC–MS to measure the cyclic peptide concentration representing maximum permeability. Permeability percent was calculated using equation (4) below.4 Permeability%=PeptideAcceptor/PeptideEquilibrated×100 where [PeptideAcceptor] represents the AUC measured on the LC–MS for the acceptor wells, and [PeptideEquilibrated] represents the AUC measured for the samples diluted to the theoretical equilibrium. Detection limit for the assay was typically at 1% permeability.
Papp values were calculated using equation (5).5 Papp=VD×VA/VD+VA×A×t×−ln1−PeptideAcceptor/PeptideEquilibrated where VD and VA are the volumes of donor and acceptor wells, respectively; A is the area of the membrane; and t is the incubation time.

human α-thrombin = human α-thrombin (Homo sapiens, UniProt P00734); experiment: Protease inhibition, Ki for human α-thrombin (fluorogenic substrate Z-Gly-Gly-Arg-AMC); type: biochemical; conditions: for Human alpha thrombin inhibition, slope normalized to DMSO: replicates R1-R3
Procedure, shortened: as §1

[3] = peptide 1.33E+02 uM, slope of proteolytic substrate cleavage over time

T2 sequence (P00791 60-385): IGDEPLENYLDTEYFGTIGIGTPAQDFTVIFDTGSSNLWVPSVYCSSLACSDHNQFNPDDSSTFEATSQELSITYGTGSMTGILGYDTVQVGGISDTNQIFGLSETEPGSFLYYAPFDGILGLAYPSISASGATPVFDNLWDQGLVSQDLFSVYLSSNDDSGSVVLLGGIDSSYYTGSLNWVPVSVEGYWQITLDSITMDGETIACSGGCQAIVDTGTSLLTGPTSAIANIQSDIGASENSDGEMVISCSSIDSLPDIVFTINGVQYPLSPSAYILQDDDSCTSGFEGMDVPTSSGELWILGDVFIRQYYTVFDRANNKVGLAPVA

SMILES: CN1CCC(=O)NCCSCCS(=O)(=O)CCSC[C@H](NC(=O)c2ccc(Cl)s2)C(=O)N[C@@H](Cc2ccccc2)C1=O [compound 14]
- Ki (rat α-thrombin; average of R1-R3, read-out: Ki Average): 357 nM
- Slope normalized to DMSO (proteolytic substrate cleavage over time) (rat α-thrombin; peptide 1.02E-03 uM): 100.5 and 96.1 and 105.7
- Slope normalized to DMSO (proteolytic substrate cleavage over time) (rat α-thrombin; peptide 1.04E+00 uM): 47.3 and 45.5 and 46.2
- Slope normalized to DMSO (proteolytic substrate cleavage over time) (rat α-thrombin; peptide 1.27E-04 uM): 98.2 and 95.5 and 104.0
- Slope normalized to DMSO (proteolytic substrate cleavage over time) (rat α-thrombin; peptide 1.30E-01 uM): 88.1 and 88.0 and 95.1
- Rat alpha thrombin inhibition, slope normalized to DMSO (rat α-thrombin; [3]): 29.3 and 31.0 and 24.5
- Slope normalized to DMSO (proteolytic substrate cleavage over time) (rat α-thrombin; peptide 1.63E-02 uM): 95.3 and 90.7 and 94.2
- Rat alpha thrombin inhibition, slope normalized to DMSO (rat α-thrombin; peptide 1.67E+01 uM): 11.1 and 9.5 and 16.8
- Slope normalized to DMSO (proteolytic substrate cleavage over time) (rat α-thrombin; peptide 2.03E-03 uM): 96.6 and 95.4 and 92.0
- Rat alpha thrombin inhibition, slope normalized to DMSO (rat α-thrombin; peptide 2.08E+00 uM): 34.7 and 33.7 and 44.2
- Slope normalized to DMSO (proteolytic substrate cleavage over time) (rat α-thrombin; peptide 2.54E-04 uM): 95.8 (2×) and 100.3
- Slope normalized to DMSO (proteolytic substrate cleavage over time) (rat α-thrombin; peptide 2.60E-01 uM): 75.1 and 76.7 and 74.0
- Slope normalized to DMSO (proteolytic substrate cleavage over time) (rat α-thrombin; peptide 3.18E-05 uM): 100.9 and 96.6 and 106.2
- Slope normalized to DMSO (proteolytic substrate cleavage over time) (rat α-thrombin; peptide 3.26E-02 uM): 100.1 and 92.2 and 91.8
- Rat alpha thrombin inhibition, slope normalized to DMSO (rat α-thrombin; peptide 3.33E+01 uM): 8.8 and 9.0 and 13.6
- Slope normalized to DMSO (proteolytic substrate cleavage over time) (rat α-thrombin; peptide 4.07E-03 uM): 100.3 and 98.9 and 95.8
- Rat alpha thrombin inhibition, slope normalized to DMSO (rat α-thrombin; peptide 4.17E+00 uM): 29.3 and 26.2 and 29.7
- Slope normalized to DMSO (proteolytic substrate cleavage over time) (rat α-thrombin; peptide 5.09E-04 uM): 99.8 and 96.7 and 105.4
- Slope normalized to DMSO (proteolytic substrate cleavage over time) (rat α-thrombin; peptide 5.21E-01 uM): 62.1 and 60.1 and 59.5
- Slope normalized to DMSO (proteolytic substrate cleavage over time) (rat α-thrombin; peptide 6.36E-05 uM): 99.5 and 99.0 and 105.5
- Slope normalized to DMSO (proteolytic substrate cleavage over time) (rat α-thrombin; peptide 6.51E-02 uM): 92.1 and 90.2 and 94.2
- Rat alpha thrombin inhibition, slope normalized to DMSO (rat α-thrombin; peptide 6.67E+01 uM): 22.0 and 23.9 and 12.4
- Slope normalized to DMSO (proteolytic substrate cleavage over time) (rat α-thrombin; peptide 8.14E-03 uM): 88.9 and 94.1 and 99.5
- Rat alpha thrombin inhibition, slope normalized to DMSO (rat α-thrombin; peptide 8.33E+00 uM): 16.6 and 15.4 and 23.2
- IC50 (rat α-thrombin; single replicates R1-R3, read-out: IC50): 640 nM and 631 nM and 666 nM
- Ki (rat α-thrombin; single replicates R1-R3, read-out: Ki): 354 nM and 349 nM and 368 nM
- SGF stability, Residual peptide Average (porcine pepsin; after 8 h vs 0 h (TIC), average of R1-R3): 95.02
- SGF stability, Residual peptide (porcine pepsin; after 8 h vs 0 h (TIC), single replicates R1-R3): 100.52 and 97.58 and 86.97
- remaining at 8 h (porcine pepsin; pig, simulated gi fluid, 8 h, 37 °C, pH 1.2, read-out: Proteolytic stability: SGF (8 h) % remaining): 95 ± 7%
- microsomal CLint ([1]; CL (ul/min/mg protein) R1, RLM CL, replicate R1): 78.3 µL/min/mg
- microsomal CLint ([1]; CL (ul/min/mg protein) R2, RLM CL, replicate R2): 132 µL/min/mg
- microsomal CLint ([1]; CL (ul/min/mg protein) R3, RLM CL, replicate R3): 141 µL/min/mg
- half-life ([1]; Half Life (min) R1, RLM metabolic stability, replicate R1, 0-60 min): 17.7 min
- half-life ([1]; Half Life (min) R2, RLM metabolic stability, replicate R2, 0-60 min): 10.5 min
- half-life ([1]; Half Life (min) R3, RLM metabolic stability, replicate R3, 0-60 min): 9.82 min
- microsomal CLint ([1]; Metabolic stability: RLM CL (ul/min/mg), RLMs, mean and SD, three measurements): 117 ± 28 µL/min/mg
- microsomal CLint ([1]; Metabolic stability: RLM CL R1, summary table, rounded, replicate R1): 78.3 µL/min/mg
- microsomal CLint ([1]; Metabolic stability: RLM CL R2, summary table, rounded, replicate R2): 132 µL/min/mg
- microsomal CLint ([1]; Metabolic stability: RLM CL R3, summary table, rounded, replicate R3): 141 µL/min/mg
- half-life ([1]; pH 7.4, Metabolic stability: Half life T1/2 (min), RLMs, mean and SD, three measurements): 12.7 ± 3.6 min
- microsomal CLint ([1]; pH 7.4, Metabolic stability: RLM CL Average, summary table, average of R1-R3): 117 µL/min/mg
- PAMPA permeability: % permeability ([2]; 50 μM, 12–18 h, acceptor concentration relative to equilibrium): 1.27 ± 0.67%
- Papp at 50 μM ([2]; PAMPA, pH 7.4): 0.0776 ×10⁻⁶ cm/s
- Permeability% Average ([2]; PAMPA, average of R1-R3): 1.3%
- Permeability% R1 ([2]; PAMPA, replicate R1, TIC of top well sample relative to sample at theoretical equilibrium): 2.04%
- Permeability% R3 ([2]; PAMPA, replicate R3, TIC of top well sample relative to sample at theoretical equilibrium): 1.01%
- IC50 (human α-thrombin; human alpha thrombin, individual replicates R1-R3, read-out: IC50): 1240 nM and 961 nM and 880 nM
- Ki (human α-thrombin; human alpha thrombin, individual replicates R1-R3, read-out: Ki): 952 nM and 740 nM and 678 nM
- Ki (human α-thrombin; human alpha thrombin, average of R1-R3, read-out: Ki Average): 790 nM
- Human alpha thrombin inhibition, slope normalized to DMSO (human α-thrombin; peptide 1.02E-03 uM): 99.6 and 102.5 and 100.4
- Human alpha thrombin inhibition, slope normalized to DMSO (human α-thrombin; peptide 1.04E+00 uM): 62.7 and 63.2 and 64.7
- Human alpha thrombin inhibition, slope normalized to DMSO (human α-thrombin; peptide 1.27E-04 uM): 101.4 and 100.0 and 103.5
- Human alpha thrombin inhibition, slope normalized to DMSO (human α-thrombin; peptide 1.30E-01 uM): 93.3 and 94.2 and 91.8
- Human alpha thrombin inhibition, slope normalized to DMSO (human α-thrombin; [3]): 35.6 and 42.1 and 48.0
- Human alpha thrombin inhibition, slope normalized to DMSO (human α-thrombin; peptide 1.63E-02 uM): 100.3 and 97.9 and 93.0
- Human alpha thrombin inhibition, slope normalized to DMSO (human α-thrombin; peptide 1.67E+01 uM): 19.0 and 23.6 and 27.7
- Human alpha thrombin inhibition, slope normalized to DMSO (human α-thrombin; peptide 2.03E-03 uM): 98.3 and 97.0 and 102.8
- Human alpha thrombin inhibition, slope normalized to DMSO (human α-thrombin; peptide 2.08E+00 uM): 53.1 and 49.4 and 51.7
- Human alpha thrombin inhibition, slope normalized to DMSO (human α-thrombin; peptide 2.54E-04 uM): 100.9 and 99.7
- Human alpha thrombin inhibition, slope normalized to DMSO (human α-thrombin; peptide 2.60E-01 uM): 86.0 and 78.5 and 87.5
- Human alpha thrombin inhibition, slope normalized to DMSO (human α-thrombin; peptide 3.18E-05 uM): 105.6 and 95.1 and 100.8
- Human alpha thrombin inhibition, slope normalized to DMSO (human α-thrombin; peptide 3.26E-02 uM): 99.1 and 97.3 and 99.5
- Human alpha thrombin inhibition, slope normalized to DMSO (human α-thrombin; peptide 3.33E+01 uM): 14.9 and 14.8 and 17.4
- Human alpha thrombin inhibition, slope normalized to DMSO (human α-thrombin; peptide 4.07E-03 uM): 104.1 and 99.4 and 102.2
- Human alpha thrombin inhibition, slope normalized to DMSO (human α-thrombin; peptide 4.17E+00 uM): 44.0 and 45.0 and 45.3
- Human alpha thrombin inhibition, slope normalized to DMSO (human α-thrombin; peptide 5.09E-04 uM): 89.0 and 97.2 and 100.9
- Human alpha thrombin inhibition, slope normalized to DMSO (human α-thrombin; peptide 5.21E-01 uM): 80.8 and 75.1 and 78.9
- Human alpha thrombin inhibition, slope normalized to DMSO (human α-thrombin; peptide 6.36E-05 uM): 99.9 and 99.1 and 102.2
- Human alpha thrombin inhibition, slope normalized to DMSO (human α-thrombin; peptide 6.51E-02 uM): 97.0 and 92.8 and 96.0
- Human alpha thrombin inhibition, slope normalized to DMSO (human α-thrombin; peptide 6.67E+01 uM): 27.9 and 32.4 and 47.7
- Human alpha thrombin inhibition, slope normalized to DMSO (human α-thrombin; peptide 8.14E-03 uM): 99.8 and 97.9 and 99.0
- Human alpha thrombin inhibition, slope normalized to DMSO (human α-thrombin; peptide 8.33E+00 uM): 29.9 and 28.6 and 29.1
